Data set [1] can be described thus: Morpholine Test (depression of the partial vapour pressure of morpholine, Raoult variance ratio). Format: physicochemical. The conditions noted are these: morpholine (0.25 g) and material (1 g), 37°C, headspace GC. Here is the method:
In this test the capacity of a material to depress the partial vapour pressure of morpholine more than that required by Raoult's Law is measured. Substances that undergo chemical reaction with morpholine, for example aldehydes, are to be regarded as excluded from the test.
Into a sample bottle of capacity 20 ml is introduced morpholine ([…]), the bottle fitted with a serum cap and then maintained at 37°C for 30 minutes for equilibrium to be reached. The gas in the headspace of the bottle is analysed by piercing the serum cap with a capillary needle through which nitrogen at 37°C is passed to increase the pressure in the bottle by a standard amount and then allowing the excess pressure to inject a sample from the headspace into gas chromatograph apparatus, which analyses it and provides a chromatographic trace curve with a peak due to morpholine, the area under which is proportional to the amount of morpholine in the sample.
The procedure is repeated under exactly the same conditions using instead of morpholine alone, morpholine (0.25 g) and the material to be tested (1 g); and also using the material (1 g) without the morpholine to check whether it gives an interference with the morpholine peak (which is unusual).
The procedure is repeated until reproducible results are obtained. The areas under the morpholine peaks are measured and any necessary correction due to interference by the material is made.
A suitable apparatus for carrying out the above procedure is a Perkin-Elmer Automatic GC Multifract F40 for Head Space Analysis. Further details of this method are described by Kolb in "CZ-Chemie-Technik", Vol 1, No 2, 87-91 (1972) and by Jentzsch et al in "Z. Anal. Chem." 236, 96-118 (1968).
The measured areas representing the morpholine concentration are proportional to the partial vapour pressure of the morpholine in the bottle headspace. If A is the area under the morpholine peak when only morpholine is tested and A' is the area due to morpholine when a material is present, the relative lowering of partial vapour pressure of morpholine by the material is given by 1-A'/A.
According to Raoult's Law, if at a given temperature the partial vapour pressure or morpholine in equilibrium with air above liquid morpholine is p, the partial vapour pressure p' exerted by morpholine in a homogeneous liquid mixture of morpholine and material at the same temperature is pM/(M+PC), where M and PC are the molar concentrations of morpholine and material.
The extend to which the behaviour of the mixture departs from Raoult's Law is given by the ratio (1-A'/A)/(87/(87+m/4)) [formula]
The above ratio, which will be referred to as the Raoult variance ratio, is calculated from the test results. Where a material is a mixture of compounds, a calculated or experimentally determined average molecular weight is used for m. A material that depresses the partial vapour pressure of morpholine by at least 10% more than that required by Raoult's Law in the Morpholine Test is one in which the Raoult variance ratio is at least 1.1.

The target in data set [2] is T1, lipoxidase (EC1.13.1.13) (Glycine max, UniProt P08170).
T1 sequence (P08170 1-839): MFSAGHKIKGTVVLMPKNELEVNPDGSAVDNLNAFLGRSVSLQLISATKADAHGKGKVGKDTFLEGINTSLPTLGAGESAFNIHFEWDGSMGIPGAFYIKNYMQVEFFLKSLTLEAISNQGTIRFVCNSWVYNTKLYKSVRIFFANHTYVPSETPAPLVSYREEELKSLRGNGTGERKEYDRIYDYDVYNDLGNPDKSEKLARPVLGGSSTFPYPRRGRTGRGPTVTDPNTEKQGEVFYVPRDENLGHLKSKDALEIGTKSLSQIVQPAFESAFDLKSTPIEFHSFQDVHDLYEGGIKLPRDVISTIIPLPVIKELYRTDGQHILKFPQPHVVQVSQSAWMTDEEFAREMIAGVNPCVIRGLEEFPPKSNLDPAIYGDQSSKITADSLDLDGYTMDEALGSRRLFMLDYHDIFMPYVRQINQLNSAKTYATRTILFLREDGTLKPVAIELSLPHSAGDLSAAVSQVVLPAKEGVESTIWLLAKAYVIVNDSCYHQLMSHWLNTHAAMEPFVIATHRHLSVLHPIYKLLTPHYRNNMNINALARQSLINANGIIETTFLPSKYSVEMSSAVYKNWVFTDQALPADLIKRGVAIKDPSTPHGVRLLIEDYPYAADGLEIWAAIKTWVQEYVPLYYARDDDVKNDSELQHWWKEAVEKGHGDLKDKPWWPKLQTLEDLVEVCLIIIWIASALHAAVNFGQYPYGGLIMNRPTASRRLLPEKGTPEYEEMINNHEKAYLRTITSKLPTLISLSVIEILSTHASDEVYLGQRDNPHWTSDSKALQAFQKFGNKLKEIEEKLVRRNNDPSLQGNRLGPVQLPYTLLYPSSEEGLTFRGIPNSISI
Kind of data set: Lipoxidase Inhibition Test (inhibition of the oxidation of linoleic acid by lipoxidase). The conditions noted are these: Lipoxidase Inhibiting Capacity; 0.5% by weight solution in ethanol of the material in test substrate solution; borate buffer pH 9.0; 234 nm. The format is biochemical. Here is the method:
In this test the capacity of a material to inhibit the oxidation of linoleic acid by lipoxidase (EC1.13.1.13) to form a hydroperoxide is measured.
Aqueous 0.2M sodium borate solution (pH 9.0) is used as buffer solution.
A control substrate solution is prepared by dissolving linoleic acid (2.0 ml) in absolute ethanol (60 ml), diluting with distilled water to 100 ml and then adding borate buffer (100 ml) and absolute ethanol (300 ml).
A test substrate solution is prepared in the same way as the control substrate solution except that for the absolute ethanol (300 ml) is substituted the same volume of a 0.5% by weight solution in ethanol of the material to be tested.
A solution of the enzyme lipoxidase in the borate buffer and having an activity within the range of from 15,000 to 40,000 units per ml is prepared.
The activity of the lipoxidase in catalysing the oxidation of linoleic acid is first assayed spectrophotometrically using the control. An automatic continuously recording spectrophotometer is used and the increase in extinction at 234 nm (the peak of hydroperoxide) is measured to follow the course of oxidation, the enzyme concentration used being such that it gives an increase in optical density (ΔOD) at 234 nm within the range of from 0.6 to 1.0 units per minute. The following ingredients are placed in two 3 ml cuvettes:
The lipoxidase solution is added to the control cuvette last and the reaction immediately followed spectrophotometrically for about 3 minutes, with recording of the increase in optical density at 234 nm as a curve on a graph.
The capacity of a material to inhibit the oxidation is then measured using a test sample containing enzyme, substrate and a deodorant material. The following ingredients are placed in two 3 ml cuvettes.
The lipoxidase solution is added to the test sample cuvette last and the course of the reaction immediately followed as before.
The lipoxidase-inhibiting capacity of the material is then calculated from the formula 100 (S1-S2)/S1, where S1 is the slope of the curve obtained with the control and S2 is the slope of the curve obtained with the test sample, and thus expressed as % inhibitor. A material that gives at least 50% inhibition in the test is hereafter referred to as having a lipoxidase-inhibiting capacity of at least 50%.

For the compound `O=C(OCc1ccccc1)c1ccccc1O` [Benzyl salicylate], the RVR value in data set [1] worked out at 1.58. Besides, the LIC value in data set [2] is 0%.
Turning to `O=c1ccc2ccccc2o1` [Coumarin], the RVR value in data set [1] was 1.22. Moreover, the LIC value in data set [2] was determined as 58%.
On the same counts, the results for `CCOc1cc(C=O)ccc1O` [Ethyl vanillin] are 1.43 and 100%.
`COC(=O)c1c(C)cc(O)c(C)c1O` [LRG 201]: the RVR value in data set [1] is on record as 1.21. The LIC value in data set [2] is on record as 100%.
For `OCCc1ccccc1` [Phenylethyl alcohol], the RVR value in data set [1] is on record as 1.24. This compound displayed an LIC value in data set [2] of 22%.
Turning to `CC(=O)OC1CCC(C(C)(C)C)CC1` (centres unmarked) [p-t-Butyl cyclohexyl acetate], the RVR value in data set [1] is 0.98. Besides, the LIC value in data set [2] stood at 54%.
As to `CC(C=O)Cc1ccc(C(C)(C)C)cc1` (stereo not drawn) [p-t-Butyl-α-methyl hydrocinnamic aldehyde], in data set [2], the LIC value was 74%.
In data set [2], `COc1ccc2ccccc2c1` [β-Naphthyl methyl ether] registered an LIC value of 100%.

For the origin of these results see patent publication EP0684037B1, “Deodorant compositions” (UNILEVER PLC, priority 1994, dated 1995).
